Results reported in patent US5384113A, “Stabilizers to prevent autoradiolysis of radiolabeled peptides and proteins” (priority 1993, dated 1995).

Columns and labels:
[1] = Stability (radiochemical purity) of 111In DTPA-octreotide solution at room temperature by reverse-phase HPLC with radiometric detector; assay type: physicochemical; conditions: alone or in combination with other stabilizers; summary of Examples 1-7
Procedure: (§1) To a lyophilized kit containing 10 μg DTPA-octreotide (N-[3,6,9,9-tetrakis(carboxymethyl)-3,6,9-triazanonanoyl]-D-phenylalanyl-L -hemicystyl-L-phenylalanyl-D-tryptophyl-L-lysyl-L-threonyl-L-hemicydyyl-L-t hreoninol cyclic (2→7) disulfide, MW=1394.60 gm/mol), 5.6 mg trisodium citrate dihydrate, and 0.4 mg citric acid monohydrate was added 1.0 ml of 0.02M HCl containing 4.70 mCi of ^111 In. The pH of the solution was 4.5. The solution was kept at room temperature and monitored for the amount of ^111 In DTPA-octreotide using reverse-phase HPLC and a Beckman 170 radiometric detector. […]
as §1, with “dihydrate,” for “dihydrate, and”, “monohydrate, and 1.0 mg inositol” for “monohydrate”, “6.04” for “4.70”, “The pH of the solution was 4.5.” left out

somatostatin receptors = conditions: variety of human tumors; cited from earlier work

O=C(O)c1cc(O)ccc1O [gentisic acid, 2,5-dihydroxybenzoic acid]
Prevention of radiolysis of radiolabeled peptides (stabilizer effect) [1]: very effective at preventing radiolysis

C[C@@H](O)[C@@H]1NC(=O)[C@H](CCCCN)NC(=O)[C@@H](Cc2c[nH]c3ccccc23)NC(=O)[C@H](Cc2ccccc2)NC(=O)[C@@H](NC(=O)[C@H](N)Cc2ccccc2)CSSC[C@@H](C(=O)N[C@H](CO)[C@@H](C)O)NC1=O [octreotide]
Binding affinity to somatostatin receptors (somatostatin receptors): very high binding affinity
